Reference: patent US20220226231A1, “AGRIMONY EXTRACT AS ANTI-POLLUTION AGENT” (PIERRE FABRE DERMO-COSMETIQUE, priority 2019, published 2022)

System: reconstructed human epithelium (RHE)
Experiment: Anti-pollution activity: MDA production (lipid peroxidation) in ozone-stressed reconstructed human epithelium
Format: cell-based
Settings: Trolox 1 mg/mL
Excerpt: The objective of this study is to evaluate the antioxidant, detoxifying and ozone-protective activity of an agrimony extract, following exposure to ozone in a reconstructed human epithelium (RHE) mimicking the effect of pollution on the skin. Lipids playing a role in epidermal barrier function, such as free fatty acids, cholesterol, triglycerides and ceramides, can be impacted under stress conditions with increased oxidative lipid damage. Direct measurements of lipid peroxidation can be carried out by measuring malondialdehyde (MDA) by gas chromatography techniques combined with mass spectrometry. This compound is naturally present in tissues, where it is a manifestation of oxidative stress. It is derived in particular from the action of reactive oxygen derivatives on polyunsaturated fatty acids. Several conditions are realized in this study: • Negative control: non-stressed RHE; • Positive control: ozone-stressed RHE; • Test with an agrimony extract: ozone-stressed RHE is in contact with the extract (n=3), this test is performed with 3 different concentrations (1, 3 and 10 μg/mL); • Test with a reference compound: ozone-stressed RHE is in contact with the reference compound (Trolox). The agrimony extract is solubilized in water/DMSO, (80/20, v/v). The process is based on lipid oxidation from ozonolysis. […] A protection index is calculated from the stress and control conditions. […]

Question: `Cc1c(C)c2c(c(C)c1O)CCC(C)(C(=O)O)O2` (centres unmarked) [Trolox, 3,4-Dihydro-6-hydroxy-2,5,7,8-tetramethyl-2H-1-benzopyran-2-carboxylic acid] was tested. Which “PI (%) protection index” value did it give?
Answer: 37.6%

Question: What about the “PI (%) protection index” value (listed as trolox) of the same molecule?
Answer: 38%
